Results from patent publication EP0130554A1, “Novel, physiologically active substance, process for production thereof and pharmaceutical composition containing the same” (KYOWA HAKKO KOGYO CO., LTD., priority 1983, dated 1985).

Experiments:
adrenergic receptor = assay: Agonistic/antagonistic activity on adrenergic receptor
[1] = Solubility in various solvents; format: physicochemical
Atria = assay: Inhibition of isoproterenol-induced positive chronotropic effect in spontaneously beating isolated atria (organ bath); format: cell-based, guinea pigs; conditions: Cavia porcellus, 0.5 h; MY336-a 30 µg/ml, added 30 minutes before isoproterenol hydrochloride 10^-9 g/ml; atrial rate, isolated guinea pig atria; read-out: blocked the positive chronotropic effect induced by isoproterenol hydrochloride
Method: Method: • Atria were rapidly isolated from guinea pigs (body weight: 500 - 700G) and mounted in an organ bath. The bath was filled with 30 ml oxygenated (95% 02, 5% C02) Krebs-Henseleit's solution at 31il°C. Atria were allowed to beat spontaneously and the contractions were isometrically recorded using force- displacement transducers. Resting force was adjusted to 0.5g. Then, atrial rate was measured. Then, a solution of isoproterenol hydrochloride in a very small amount of water was added thereto to make the isoproterenol hydrochloride concentration to be 10-^9 g/ml, and atrial rate was measured.
The solution was discarded and the bath was filled with krebs-Henseleit's solution, and allowed to stand until the atrial rate was brought back.
Then, a solution of MY336-a in a very small amount of 50% ethanol was added thereto to make the MY336-a concentration to be 30 µg/ml, and 30 minutes thereafter, a solution of isoproterenol hydrochloride in a very small amount of water was added thereto to make the isoproterenol hydrochloride concentration to be 10-^9 g/ml, and atrial rate was measured.

agonistic activity on adrenergic receptor (adrenergic receptor): no agonistic activity
antagonistic activity on adrenergic receptor (adrenergic receptor): has an antagonistic activity
Solubility ([1]; in acetone, hexane and ether): sparingly soluble
Solubility ([1]; in acidic water): readily soluble
Solubility ([1]; in water and methanol): soluble
Structure (SMILES): COc1c(C)cc2c(c1O)C(CO)NC(CO)C2 (stereo not drawn) [MY336-a]
inhibition at 30 µg/mL (Atria): 84.9%
